Results: BindingDB's records for doi:10.7270/Q2251GJ9 (The Scripps Research Institute Molecular Screening Center, 2007)
pEC50: −log10 of the molar value.

Molecular target: Sphingosine 1-phosphate receptor 1 (Homo sapiens, UniProt P21453)
Assay: direct activation of human S1P1 – cell-based, agonist mode, 60K MLSMR set, dose response (AID 468)
[1] = inactive by the depositor's call

Sequence of Sphingosine 1-phosphate receptor 1 (P21453 whole entry): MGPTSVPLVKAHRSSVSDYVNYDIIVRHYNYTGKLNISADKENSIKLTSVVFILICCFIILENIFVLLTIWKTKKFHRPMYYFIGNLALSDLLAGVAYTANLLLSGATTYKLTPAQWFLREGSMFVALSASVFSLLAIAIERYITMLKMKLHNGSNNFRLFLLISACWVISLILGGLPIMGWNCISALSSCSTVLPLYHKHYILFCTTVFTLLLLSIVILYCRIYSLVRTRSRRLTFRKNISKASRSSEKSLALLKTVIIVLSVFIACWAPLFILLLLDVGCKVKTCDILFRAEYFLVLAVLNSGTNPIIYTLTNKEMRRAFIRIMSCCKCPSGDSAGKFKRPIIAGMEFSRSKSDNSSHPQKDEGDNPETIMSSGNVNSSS

SMILES	pEC50 [1]	pEC50
CCOC(=O)c1ccc2nc(NC(=O)c3ccco3)sc2c1 [2-(2-furoylamino)-1,3-benzothiazole-6-carboxylic acid ethyl ester]	4.79	–
CC(C)COC(=O)NCCOC(=O)Nc1cccc(Cl)c1 [2-(2-methylpropoxycarbonylamino)ethyl N-(3-chlorophenyl)carbamate]	–	5.21
O=C(CSCC(=O)N1CCCCC1)Nc1nc(-c2cccs2)cs1 [2-(2-oxidanylidene-2-piperidin-1-yl-ethyl)sulfanyl-N-(4-thiophen-2-yl-1,3-thiazol-2-yl)ethanamide]	–	< 4.52
O=S(=O)(CCSc1ccccn1)c1nc2ccccc2s1 [2-(2-pyridin-2-ylsulfanylethylsulfonyl)-1,3-benzothiazole]	4.98	–
CCOc1ccc(-c2nnc(-c3ccco3)o2)cc1OCC [2-(3,4-Diethoxy-phenyl)-5-furan-2-yl-[1,3,4]oxadiazole]	–	5.93
CCOc1ccc(-c2nnc(-c3cccs3)o2)cc1OCC [2-(3,4-Diethoxy-phenyl)-5-thiophen-2-yl-[1,3,4]oxadiazole]	–	5.23
CCOc1ccc(-c2nnc(-c3cccnc3)o2)cc1OCC [2-(3,4-diethoxyphenyl)-5-(3-pyridinyl)-1,3,4-oxadiazole]	–	5.48
Cn1c(C(=O)N2CCc3ccccc3C2)cc2oc3ccccc3c21 [2-(3,4-dihydroisoquinolin-2(1H)-ylcarbonyl)-1-methyl-1H-[1]benzofuro[3,2-b]pyrrole]	–	< 4.52
COc1ccc(-c2nc3cc(NC(=O)Cc4ccc(OC)c(OC)c4)ccc3o2)cc1 [2-(3,4-dimethoxyphenyl)-N-[2-(4-methoxyphenyl)-1,3-benzoxazol-5-yl]acetamide]	–	5.10
Cc1cc(C)n(-c2nc3ccccc3c(=O)n2OCCOc2ccccc2)n1 [2-(3,5-dimethyl-1-pyrazolyl)-3-(2-phenoxyethoxy)-4-quinazolinone]	4.70	–
O=C1C2CCCN2C(c2cccnc2)N1c1cccc(Cl)c1 (stereo not given) [2-(3-chlorophenyl)-3-(3-pyridinyl)-5,6,7,7a-tetrahydro-3H-pyrrolo[1,2-c]imidazol-1-one]	–	< 4.02
COc1ccccc1Oc1ccc2c(c1)C(=O)N(c1cccc(O)c1)C2=O [2-(3-hydroxyphenyl)-5-(2-methoxyphenoxy)isoindole-1,3-dione]	–	5.63
O=C(CSC1=NCCS1)Nc1ccnc2ccccc12 [2-(4,5-dihydro-1,3-thiazol-2-ylsulfanyl)-N-quinolin-4-yl-ethanamide]	–	5.61
O=C(CSc1ncnc2c1oc1ccccc12)N1CCCc2ccccc21 [2-(4-benzofuro[3,2-d]pyrimidinylthio)-1-(3,4-dihydro-2H-quinolin-1-yl)ethanone]	–	< 5.52
N#Cc1nc(-c2ccc(OCc3ccccc3)cc2)oc1NCc1cccnc1 [2-(4-benzoxyphenyl)-5-(3-pyridylmethylamino)oxazole-4-carbonitrile]	–	5.10
CN(C)c1oc(-c2ccc(OCc3ccccc3)cc2)nc1C#N [2-(4-benzoxyphenyl)-5-(dimethylamino)oxazole-4-carbonitrile]	–	5.49
CNc1oc(-c2ccc(OCc3ccccc3)cc2)nc1C#N [2-(4-benzoxyphenyl)-5-(methylamino)oxazole-4-carbonitrile]	–	5.49
Clc1ccc(-c2nc3nc4ccccc4nc3n2Cc2ccco2)cc1 [2-(4-chlorophenyl)-3-(2-furanylmethyl)imidazo[4,5-b]quinoxaline]	4.60	–
COc1ccccc1Oc1ccc2c(c1)C(=O)N(c1ccc(O)cc1)C2=O [2-(4-hydroxyphenyl)-5-(2-methoxyphenoxy)isoindole-1,3-dione]	–	6.66
CCCOc1ccc(-c2nnc(-c3ccncc3)o2)cc1 [2-(4-propoxyphenyl)-5-(4-pyridyl)-1,3,4-oxadiazole]	–	< 4.02
O=C(CSc1nnc(Cn2nnc3ccccc32)o1)N(Cc1ccc(F)cc1)c1ccccc1 [2-(5-Benzotriazol-1-ylmethyl-[1,3,4]oxadiazol-2-ylsulfanyl)-N-(4-fluoro-benzyl)-N-phenyl-acetamide]	–	5.29
c1ccc(CSc2nnc(-c3cccs3)o2)cc1 [2-(benzylthio)-5-(2-thienyl)-1,3,4-oxadiazole]	4.68	–
COC(=O)c1ccc2c(=O)n(C3CCCCC3)c(SCC#N)nc2c1 [2-(cyanomethylthio)-3-cyclohexyl-4-keto-quinazoline-7-carboxylic acid methyl ester]	–	5.00

Next, values leading:

pEC50 [1]	pEC50	SMILES
–	< 4.52	CCOC(=O)c1sc2nc(NC(=O)C3CCCCC3)sc2c1C [2-(cyclohexanecarbonylamino)-6-methyl-thieno[2,3-d]thiazole-5-carboxylic acid ethyl ester]
4.77	–	CCOc1nc(-c2ccccc2)ccc1-c1noc(-c2ccco2)n1 [2-Ethoxy-3-(5-furan-2-yl-[1,2,4]oxadiazol-3-yl)-6-phenyl-pyridine]
–	5.32	CCCCNc1cc(C)nc(NCc2ccccc2)n1 [2-N-benzyl-4-N-butyl-6-methylpyrimidine-2,4-diamine]
–	5.28	COc1ccc(-n2nnnc2S(=O)(=O)CC(=O)N2CCCCC2)cc1 [2-[1-(4-methoxyphenyl)tetrazol-5-yl]sulfonyl-1-piperidin-1-ylethanone]
5.00	–	CN1CCN(C(=O)CSc2nc(-c3cccs3)cc(-c3cccs3)c2C#N)CC1 [2-[2-(4-methylpiperazin-1-yl)-2-oxidanylidene-ethyl]sulfanyl-4,6-dithiophen-2-yl-pyridine-3-carbonitrile]
–	5.27	Cc1cc(C(=O)CSc2nc3ccccc3c(=O)n2C)c(C)n1Cc1ccc2c(c1)OCO2 [2-[2-[1-(1,3-benzodioxol-5-ylmethyl)-2,5-dimethyl-pyrrol-3-yl]-2-oxidanylidene-ethyl]sulfanyl-3-methyl-quinazolin-4-one]
4.76	–	Cc1cc(C(=O)CN2C(=O)c3ccccc3C2=O)c(C)n1Cc1cccs1 [2-[2-[2,5-dimethyl-1-(2-thenyl)pyrrol-3-yl]-2-keto-ethyl]isoindoline-1,3-quinone]
4.86	–	CCOC(=O)Cc1csc(NC(=O)c2ccc(Br)s2)n1 [2-[2-[(5-bromothiophene-2-carbonyl)amino]thiazol-4-yl]acetic acid ethyl ester]
4.91	–	CC1CCN(S(=O)(=O)c2ccc3c(c2)oc(=O)n3CC(=O)NCc2ccc3c(c2)OCO3)CC1 [2-[2-keto-6-(4-methylpiperidino)sulfonyl-1,3-benzoxazol-3-yl]-N-piperonyl-acetamide]
4.24	–	COc1ccc(OCCCSc2ncccn2)cc1 [2-[3-(4-methoxyphenoxy)propylsulfanyl]pyrimidine]
–	5.37	CCOC(=O)CN1C(=O)C(C)(C)Oc2ccc(C(=O)Nc3ccccc3OC)cc21 [2-[3-keto-6-[(2-methoxyphenyl)carbamoyl]-2,2-dimethyl-1,4-benzoxazin-4-yl]acetic acid ethyl ester]
–	5.10	Cc1cc(N2CCN(c3nc4ccccc4s3)CC2)n2ncnc2n1 [2-[4-(5-methyl-[1,2,4]triazolo[1,5-a]pyrimidin-7-yl)-1-piperazinyl]-1,3-benzothiazole]
–	5.61	Cc1ccc(C(C)C)c(OCc2ccc(-c3nnco3)cc2)c1 [2-[4-[(2-isopropyl-5-methyl-phenoxy)methyl]phenyl]-1,3,4-oxadiazole]
–	5.11	O=S1(=O)C=C(Sc2nc3ccccc3s2)c2ccccc21 [2-[(1,1-dioxido-1-benzothien-3-yl)thio]-1,3-benzothiazole]
4.92	–	CCOC(=O)c1sc2nc(NC(=O)C(C)(C)C)sc2c1C [2-[(2,2-dimethyl-1-oxopropyl)amino]-6-methyl-5-thieno[2,3-d]thiazolecarboxylic acid ethyl ester]
4.38	–	Clc1ccc(CSc2nnc(-c3ccncc3)o2)c(Cl)c1 [2-[(2,4-dichlorobenzyl)thio]-5-(4-pyridyl)-1,3,4-oxadiazole]
4.86	–	N#Cc1nc(COc2ccc(Cl)cc2Cl)oc1N1CCN(c2ccccc2)CC1 [2-[(2,4-dichlorophenoxy)methyl]-5-(4-phenyl-1-piperazinyl)-4-oxazolecarbonitrile]
–	5.02	COC(=O)c1sc(NC(=O)c2ccc(OC)cc2OC)nc1C [2-[(2,4-dimethoxybenzoyl)amino]-4-methyl-thiazole-5-carboxylic acid methyl ester]
–	6.88	Cc1cc(C=c2sc3nc4ccccc4n3c2=O)c(C)n1-c1ccccn1 [2-[(2,5-dimethyl-1-pyridin-2-yl-pyrrol-3-yl)methylidene]-[1,3]thiazolo[3,2-a]benzimidazol-1-one]
–	5.79	Cc1ccccc1-c1nnc(SCc2ccccc2F)o1 [2-[(2-fluorobenzyl)thio]-5-(2-methylphenyl)-1,3,4-oxadiazole]
–	5.75	Cc1ccc(-c2nnc(SCc3ccccc3F)o2)cc1 [2-[(2-fluorobenzyl)thio]-5-(4-methylphenyl)-1,3,4-oxadiazole]
–	5.34	Cc1cccc(N2CCN(C(=O)CSCc3c(C)noc3C)CC2)c1C [2-[(3,5-dimethyl-1,2-oxazol-4-yl)methylsulfanyl]-1-[4-(2,3-dimethylphenyl)piperazin-1-yl]ethanone]
4.88	–	Cc1ccc2nc(NC(=O)CSc3nc4c(c(=O)n3C)SC(C)C4)sc2c1 (stereo not given) [2-[(3,6-dimethyl-4-oxidanylidene-6,7-dihydrothieno[3,2-d]pyrimidin-2-yl)sulfanyl]-N-(6-methyl-1,3-benzothiazol-2-yl)ethanamide]
–	5.25	CCn1c(SCC(=O)Nc2nc3ccc(C)cc3s2)nc2c(c1=O)SC(C)C2 (stereo not given) [2-[(3-ethyl-4-keto-6-methyl-6,7-dihydrothieno[3,2-d]pyrimidin-2-yl)thio]-N-(6-methyl-1,3-benzothiazol-2-yl)acetamide]
–	5.41	Clc1ccc(CSc2nnc(-c3ccncc3)o2)cc1 [2-[(4-chlorobenzyl)thio]-5-(4-pyridyl)-1,3,4-oxadiazole]
–	5.61	Cc1cc(C(=O)CSc2nnc(-c3ccncc3)n2-c2ccccc2)c(C)n1C [2-[(4-phenyl-5-pyridin-4-yl-1,2,4-triazol-3-yl)sulfanyl]-1-(1,2,5-trimethylpyrrol-3-yl)ethanone]
–	< 5.00	CC(C)OC(=O)CSc1nc(N)c(C#N)c(-c2cccs2)c1C#N [2-[(6-amino-3,5-dicyano-4-thiophen-2-yl-2-pyridinyl)thio]acetic acid propan-2-yl ester]
